Experimental data reported in ChEMBL document CHEMBL1201862, “PubChem BioAssay data set” (2004).
Active and inactive are the calls of the source.

Assays:
[1] = target: T1, G-protein coupled receptor 35 (Homo sapiens, UniProt Q9HC97); test: SAR analysis of Agonists of the GPR35 Receptor using an Image-Based Assay - Set 2. [Related pubchem assays (depositor defined):AID2013, AID2026]; type: functional
[2] = target: T2, G-protein coupled receptor 55 (Homo sapiens, UniProt Q9Y2T6); test: GPR55 antagonists blocking LPI-driven arrestin recruitment, primary screen, imaging, U2OS, beta-arrestin-GFP, LPI agonist (AID 2013); type: functional;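 further: antagonist potency measured as reduced agonist-driven arrestin aggregation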
Cannabinoid receptor 2 [3] = target: T3, Cannabinoid receptor 2 (Homo sapiens, UniProt P34972); test: SAR analysis of antagonists of the Cannabinoid Receptor 2 using an Image-Based Assay. [Related pubchem assays (depositor defined):AID2013, AID2026]; type: functional
Cannabinoid receptor 2 [4] = target: T3, Cannabinoid receptor 2; test: SAR analysis of antagonists of the Cannabinoid Receptor 2 using an Image-Based Assay - Set 3. [Related pubchem assays (depositor defined):AID2013, AID2026]; type: functional
Cannabinoid receptor 1 [5] = target: T4, Cannabinoid receptor 1 (Homo sapiens, UniProt P21554); test: SAR analysis of agonists of the Cannabinoid Receptor 1 using an Image-Based Assay - Set 2. [Related pubchem assays (depositor defined):AID2013, AID2026]; type: functional
[6] = control 3'UTR Renilla luciferase suppression, dose response, counter-screen for Shn3 inhibitor project, cell-based, Clone20-Shn3RL, cherry-picked (AID 624133); type: functional
Cannabinoid receptor 2 [7] = target: T3, Cannabinoid receptor 2; test: SAR analysis of agonists of the Cannabinoid Receptor 2 using an Image-Based Assay - Set 3. [Related pubchem assays (depositor defined):AID2013, AID2026]; type: functional
[8] = Shn3 3'UTR reporter inhibitors, dose response, cell-based, Clone20 osteoblasts, firefly luciferase, cherry-picked (AID 624132); type: functional;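 further: firefly luciferase luminescence from reporter carrying the Shn3 3'UTR in osteoblasts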
[9] = target: T1, G-protein coupled receptor 35; test: SAR analysis of Antagonists of the GPR35 Receptor using an Image-Based Assay - Set 3. [Related pubchem assays (depositor defined):AID2013, AID2026]; type: functional
[10] = target: T2, G-protein coupled receptor 55; test: SAR Analysis of Selective Antagonists of GPR55 using an Image-Based Assay - Set 4. [Related pubchem assays (depositor defined):AID2013, AID2026]; type: functional
Cannabinoid receptor 2 [11] = target: T3, Cannabinoid receptor 2; test: SAR analysis of agonists of the Cannabinoid Receptor 2 using an Image-Based Assay. [Related pubchem assays (depositor defined):AID2013, AID2026]; type: functional
Cannabinoid receptor 1 [12] = target: T4, Cannabinoid receptor 1; test: SAR analysis of antagonists of the Cannabinoid Receptor 1 using an Image-Based Assay - Set 4. [Related pubchem assays (depositor defined):AID2013, AID2026]; type: functional
[13] = target: T2, G-protein coupled receptor 55; test: GPR55 antagonist potency of analogs, SAR follow-up, imaging, U2OS, beta-arrestin-GFP, LPI agonist, set 2 (AID 2820); type: functional
[14] = HepG2 cell cytotoxicity, dose response, cytotoxicity control for Shn3 inhibitor project, CellTiter-Glo, cherry-picked (AID 624134); type: functional, cell-based
INS1 = test: beta cell apoptosis inhibitors, cytokine rescue, dose response, luminescence, retest (AID 449756); type: functional, cell-based; conditions: Rattus norvegicus;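 further: cell death triggered by IL-1 beta plus TNF-alpha plus IFN-gamma mixture; protective hits raise ATP signal compared with cytokine alone wells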
Cannabinoid receptor 1 [15] = target: T4, Cannabinoid receptor 1; test: SAR analysis of antagonists of the Cannabinoid Receptor 1 using an Image-Based Assay - Set 2. [Related pubchem assays (depositor defined):AID2013, AID2026]; type: functional
[16] = target: T5, E3 ubiquitin-protein ligase XIAP (Homo sapiens, UniProt P98170); test: SAR analysis of Antagonists of XIAP-Bir3 domain of IAP-family anti-apoptotic proteins. [Related pubchem assays (depositor defined):AID1018, AID1449, AID1513, AID1514, AID1638]
[17] = target: T5, E3 ubiquitin-protein ligase XIAP; test: SAR analysis of Antagonists of IAP-family anti-apoptotic proteins. [Related pubchem assays (depositor defined):AID1018, AID1449, AID1513, AID1514, AID1638]
[18] = target: T6, Alkaline phosphatase, tissue-nonspecific isozyme (Homo sapiens, UniProt P05186); test: TNAP enzyme activators, dose response, selectivity assay for mouse IAP activator project, biochemical, TNAP isozyme, mouse IAP uHTS hits (AID 488880); type: functional
T6 sequence (P05186 whole entry): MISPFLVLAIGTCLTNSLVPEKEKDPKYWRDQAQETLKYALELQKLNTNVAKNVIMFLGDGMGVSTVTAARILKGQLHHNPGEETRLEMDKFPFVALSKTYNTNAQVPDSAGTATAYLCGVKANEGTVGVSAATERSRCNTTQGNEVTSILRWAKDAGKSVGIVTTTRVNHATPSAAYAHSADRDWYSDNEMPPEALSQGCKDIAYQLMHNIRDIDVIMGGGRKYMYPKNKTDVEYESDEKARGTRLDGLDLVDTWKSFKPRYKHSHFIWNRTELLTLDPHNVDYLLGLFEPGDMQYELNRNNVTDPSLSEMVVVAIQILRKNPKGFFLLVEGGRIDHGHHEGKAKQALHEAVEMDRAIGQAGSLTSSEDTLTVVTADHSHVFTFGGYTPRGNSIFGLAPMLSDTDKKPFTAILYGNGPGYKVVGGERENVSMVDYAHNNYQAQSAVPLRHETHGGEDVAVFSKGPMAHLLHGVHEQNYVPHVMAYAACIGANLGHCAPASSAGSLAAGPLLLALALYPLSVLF

[19] = target: Intestinal-type alkaline phosphatase (Homo sapiens, UniProt P09923); test: activation of human intestinal alkaline phosphatase – biochemical, dose response (AID 488873); type: functional
[20] = target: Intestinal-type alkaline phosphatase (Mus musculus, UniProt P24822); test: mouse intestinal alkaline phosphatase activators, dose response, biochemical, luminescence, uHTS hits (AID 488783); type: functional
Exodeoxyribonuclease V = target: T7, Exodeoxyribonuclease V (Escherichia coli (strain K12), UniProt P04993+P07648+P08394); test: E. coli RecBCD inhibitors, dose response, counter-screen for AddAB inhibitor project, absorbance, V66 E. coli, mutant T4 phage (AID 492957); type: functional, cell-based, Escherichia coli str. K-12 substr. MG1655
T7 sequence (P04993 whole entry): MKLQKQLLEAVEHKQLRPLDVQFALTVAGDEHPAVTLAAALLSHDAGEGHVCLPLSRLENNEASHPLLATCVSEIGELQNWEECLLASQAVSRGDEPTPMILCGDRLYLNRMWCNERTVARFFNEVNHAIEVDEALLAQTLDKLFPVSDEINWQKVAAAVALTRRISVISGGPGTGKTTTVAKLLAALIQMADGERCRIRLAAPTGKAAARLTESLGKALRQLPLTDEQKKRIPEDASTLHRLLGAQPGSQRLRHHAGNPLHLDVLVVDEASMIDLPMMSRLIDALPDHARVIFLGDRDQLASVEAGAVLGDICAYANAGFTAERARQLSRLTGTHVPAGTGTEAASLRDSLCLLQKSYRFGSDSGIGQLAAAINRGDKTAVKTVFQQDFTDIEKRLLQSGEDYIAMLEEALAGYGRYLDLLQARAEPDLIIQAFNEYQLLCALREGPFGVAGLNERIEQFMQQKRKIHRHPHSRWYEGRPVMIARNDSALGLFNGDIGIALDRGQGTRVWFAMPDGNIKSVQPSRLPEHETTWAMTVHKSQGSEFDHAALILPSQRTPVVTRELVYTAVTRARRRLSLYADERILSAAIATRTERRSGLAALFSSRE
T7 sequence (P07648 whole entry): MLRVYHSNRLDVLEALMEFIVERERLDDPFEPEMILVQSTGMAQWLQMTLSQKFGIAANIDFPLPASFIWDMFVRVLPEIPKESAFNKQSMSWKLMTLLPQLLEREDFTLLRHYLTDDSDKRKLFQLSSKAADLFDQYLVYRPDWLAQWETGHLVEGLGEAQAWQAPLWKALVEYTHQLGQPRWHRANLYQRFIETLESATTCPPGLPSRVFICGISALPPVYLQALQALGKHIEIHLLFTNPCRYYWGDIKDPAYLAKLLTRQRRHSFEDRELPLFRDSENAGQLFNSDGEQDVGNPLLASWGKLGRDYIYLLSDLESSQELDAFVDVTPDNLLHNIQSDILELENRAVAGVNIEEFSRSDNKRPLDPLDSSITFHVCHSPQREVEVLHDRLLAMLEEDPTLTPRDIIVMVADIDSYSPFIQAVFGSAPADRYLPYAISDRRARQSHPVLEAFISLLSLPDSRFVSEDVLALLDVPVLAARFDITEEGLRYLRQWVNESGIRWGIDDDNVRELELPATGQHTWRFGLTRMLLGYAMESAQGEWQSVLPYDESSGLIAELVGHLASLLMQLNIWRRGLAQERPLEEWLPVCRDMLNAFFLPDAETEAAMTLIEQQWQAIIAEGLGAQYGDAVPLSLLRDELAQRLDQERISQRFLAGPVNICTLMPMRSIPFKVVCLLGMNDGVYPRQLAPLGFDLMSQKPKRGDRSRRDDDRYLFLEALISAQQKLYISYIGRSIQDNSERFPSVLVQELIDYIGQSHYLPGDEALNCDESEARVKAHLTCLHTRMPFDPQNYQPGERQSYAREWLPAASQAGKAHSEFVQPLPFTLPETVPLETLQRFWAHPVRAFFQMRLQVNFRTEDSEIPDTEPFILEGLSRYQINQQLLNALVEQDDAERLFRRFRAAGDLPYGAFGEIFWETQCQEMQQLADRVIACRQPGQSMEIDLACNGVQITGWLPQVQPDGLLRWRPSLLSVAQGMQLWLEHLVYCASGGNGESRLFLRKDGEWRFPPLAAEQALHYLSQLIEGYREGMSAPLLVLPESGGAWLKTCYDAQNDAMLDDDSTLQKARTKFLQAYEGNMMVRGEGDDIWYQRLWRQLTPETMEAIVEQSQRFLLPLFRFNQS
T7 sequence (P08394 whole entry): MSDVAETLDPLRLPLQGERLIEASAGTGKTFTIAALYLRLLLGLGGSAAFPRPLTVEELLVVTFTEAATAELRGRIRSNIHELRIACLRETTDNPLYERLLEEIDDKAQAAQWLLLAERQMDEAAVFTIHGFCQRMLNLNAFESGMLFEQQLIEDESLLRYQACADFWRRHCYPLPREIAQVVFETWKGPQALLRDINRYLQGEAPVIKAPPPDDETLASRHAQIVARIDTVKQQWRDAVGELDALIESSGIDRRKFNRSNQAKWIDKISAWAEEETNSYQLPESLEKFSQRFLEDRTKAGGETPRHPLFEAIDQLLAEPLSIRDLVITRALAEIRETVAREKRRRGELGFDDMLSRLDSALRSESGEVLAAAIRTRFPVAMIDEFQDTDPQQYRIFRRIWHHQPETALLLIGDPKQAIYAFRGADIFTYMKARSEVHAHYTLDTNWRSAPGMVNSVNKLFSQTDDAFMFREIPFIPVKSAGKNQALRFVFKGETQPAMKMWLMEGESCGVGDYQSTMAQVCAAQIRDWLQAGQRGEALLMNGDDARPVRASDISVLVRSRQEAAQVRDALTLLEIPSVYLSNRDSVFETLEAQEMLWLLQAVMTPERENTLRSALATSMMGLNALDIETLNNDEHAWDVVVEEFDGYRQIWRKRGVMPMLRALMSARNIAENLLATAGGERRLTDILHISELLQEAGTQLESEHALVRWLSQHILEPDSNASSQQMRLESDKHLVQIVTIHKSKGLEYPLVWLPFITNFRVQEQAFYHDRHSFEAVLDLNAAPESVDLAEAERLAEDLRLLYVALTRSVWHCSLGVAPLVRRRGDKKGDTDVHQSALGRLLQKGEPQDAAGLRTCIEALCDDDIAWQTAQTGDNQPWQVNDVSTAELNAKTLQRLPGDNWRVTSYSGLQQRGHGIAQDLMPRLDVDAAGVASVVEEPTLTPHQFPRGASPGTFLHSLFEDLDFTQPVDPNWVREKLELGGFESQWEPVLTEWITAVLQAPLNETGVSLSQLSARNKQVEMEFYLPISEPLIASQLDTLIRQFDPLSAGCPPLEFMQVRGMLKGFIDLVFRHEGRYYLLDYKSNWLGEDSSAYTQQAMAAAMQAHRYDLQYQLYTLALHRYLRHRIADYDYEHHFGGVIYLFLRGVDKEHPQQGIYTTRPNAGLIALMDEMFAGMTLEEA

Albumin = Albumin (Bos taurus, UniProt P02769); test: Counterscreen for inhibitors of T-cell receptor (TCR)-CD3 interaction: Fluorescence-based biochemical high throughput dose response assay to identify inhibitors of T-cell receptor (TCR)-CD3 interaction using a TAMRA-labeled BSA probe.; type: functional
SUMO-activating enzyme = SUMO-activating enzyme (Homo sapiens, UniProt Q9UBT2); test: SUMOylation inhibitor hit validation, confirmation, SUMOylation inhibitor project, biochemical, AlphaScreen (AID 2018); type: functional
[21] = Counterscreen for AddAB inhibitors: absorbance-based bacterial cell-based high throughput dose response assay for inhibitors of bacterial viability. [Related pubchem assays (depositor defined):AID435030, AID449728, AID449731, AID488942, AID488955, AID488956]; type: functional

T2 sequence (Q9Y2T6 whole entry): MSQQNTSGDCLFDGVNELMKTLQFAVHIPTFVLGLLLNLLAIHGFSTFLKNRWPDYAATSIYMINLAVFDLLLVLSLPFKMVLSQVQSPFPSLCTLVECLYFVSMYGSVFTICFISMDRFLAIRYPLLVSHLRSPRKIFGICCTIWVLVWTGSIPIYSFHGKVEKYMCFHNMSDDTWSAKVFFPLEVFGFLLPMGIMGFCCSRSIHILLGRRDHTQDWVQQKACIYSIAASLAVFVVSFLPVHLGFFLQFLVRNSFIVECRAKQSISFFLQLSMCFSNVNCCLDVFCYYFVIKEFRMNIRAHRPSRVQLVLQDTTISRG
T3 sequence (P34972 whole entry): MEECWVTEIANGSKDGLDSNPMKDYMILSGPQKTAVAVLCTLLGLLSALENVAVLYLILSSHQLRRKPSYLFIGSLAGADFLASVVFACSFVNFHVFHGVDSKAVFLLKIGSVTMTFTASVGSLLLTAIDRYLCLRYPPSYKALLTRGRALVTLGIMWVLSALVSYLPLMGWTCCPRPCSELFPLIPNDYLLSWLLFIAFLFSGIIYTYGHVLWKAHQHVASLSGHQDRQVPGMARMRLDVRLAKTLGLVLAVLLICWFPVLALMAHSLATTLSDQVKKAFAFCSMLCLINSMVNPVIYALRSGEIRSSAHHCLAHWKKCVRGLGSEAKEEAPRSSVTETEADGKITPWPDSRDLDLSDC
T4 sequence (P21554 whole entry): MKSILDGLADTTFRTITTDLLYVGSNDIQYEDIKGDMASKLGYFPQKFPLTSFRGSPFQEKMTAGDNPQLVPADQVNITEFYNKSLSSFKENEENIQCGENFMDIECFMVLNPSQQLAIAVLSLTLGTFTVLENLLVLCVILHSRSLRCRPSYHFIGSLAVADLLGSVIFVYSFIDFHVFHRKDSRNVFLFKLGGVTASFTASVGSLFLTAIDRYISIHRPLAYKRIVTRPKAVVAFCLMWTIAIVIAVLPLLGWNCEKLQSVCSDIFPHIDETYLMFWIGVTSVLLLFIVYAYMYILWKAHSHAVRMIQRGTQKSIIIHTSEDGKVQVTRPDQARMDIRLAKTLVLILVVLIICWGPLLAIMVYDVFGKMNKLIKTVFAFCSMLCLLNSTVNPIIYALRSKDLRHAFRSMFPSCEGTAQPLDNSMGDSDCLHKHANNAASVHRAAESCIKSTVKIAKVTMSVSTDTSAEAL
T5 sequence (P98170 whole entry, the tested form may be a part): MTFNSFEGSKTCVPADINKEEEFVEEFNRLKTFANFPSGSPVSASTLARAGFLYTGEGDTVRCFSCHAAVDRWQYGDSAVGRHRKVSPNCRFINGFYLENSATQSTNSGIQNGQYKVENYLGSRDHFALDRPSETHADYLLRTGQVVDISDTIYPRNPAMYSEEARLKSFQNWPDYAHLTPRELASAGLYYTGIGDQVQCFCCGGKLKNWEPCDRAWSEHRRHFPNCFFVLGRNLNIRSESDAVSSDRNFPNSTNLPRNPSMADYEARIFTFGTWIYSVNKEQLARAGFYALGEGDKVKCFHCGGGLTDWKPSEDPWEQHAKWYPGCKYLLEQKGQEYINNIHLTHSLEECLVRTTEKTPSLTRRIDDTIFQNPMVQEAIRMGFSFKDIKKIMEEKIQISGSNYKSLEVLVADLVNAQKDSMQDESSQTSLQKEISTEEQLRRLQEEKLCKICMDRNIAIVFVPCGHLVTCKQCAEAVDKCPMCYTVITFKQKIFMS
T1 sequence (Q9HC97 whole entry): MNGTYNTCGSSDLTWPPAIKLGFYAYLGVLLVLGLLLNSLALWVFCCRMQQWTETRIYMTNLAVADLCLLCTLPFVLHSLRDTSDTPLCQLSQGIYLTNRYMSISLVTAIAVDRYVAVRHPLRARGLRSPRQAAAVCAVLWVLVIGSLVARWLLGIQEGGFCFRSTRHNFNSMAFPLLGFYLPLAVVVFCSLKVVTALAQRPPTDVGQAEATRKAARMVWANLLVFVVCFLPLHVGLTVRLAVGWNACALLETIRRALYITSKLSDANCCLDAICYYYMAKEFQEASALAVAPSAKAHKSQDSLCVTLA
Chain of SUMO-activating enzyme (Q9UBE0 whole entry): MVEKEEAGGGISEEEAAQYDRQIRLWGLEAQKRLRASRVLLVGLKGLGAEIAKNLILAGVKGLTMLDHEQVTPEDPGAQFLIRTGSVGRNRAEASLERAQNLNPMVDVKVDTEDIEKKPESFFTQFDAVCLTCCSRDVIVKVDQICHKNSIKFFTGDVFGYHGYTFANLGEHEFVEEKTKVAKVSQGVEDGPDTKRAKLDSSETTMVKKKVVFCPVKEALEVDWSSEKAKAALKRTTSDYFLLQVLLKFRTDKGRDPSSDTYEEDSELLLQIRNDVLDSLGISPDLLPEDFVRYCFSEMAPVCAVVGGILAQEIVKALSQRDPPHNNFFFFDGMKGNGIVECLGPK
Chain of SUMO-activating enzyme (Q9UBT2 whole entry): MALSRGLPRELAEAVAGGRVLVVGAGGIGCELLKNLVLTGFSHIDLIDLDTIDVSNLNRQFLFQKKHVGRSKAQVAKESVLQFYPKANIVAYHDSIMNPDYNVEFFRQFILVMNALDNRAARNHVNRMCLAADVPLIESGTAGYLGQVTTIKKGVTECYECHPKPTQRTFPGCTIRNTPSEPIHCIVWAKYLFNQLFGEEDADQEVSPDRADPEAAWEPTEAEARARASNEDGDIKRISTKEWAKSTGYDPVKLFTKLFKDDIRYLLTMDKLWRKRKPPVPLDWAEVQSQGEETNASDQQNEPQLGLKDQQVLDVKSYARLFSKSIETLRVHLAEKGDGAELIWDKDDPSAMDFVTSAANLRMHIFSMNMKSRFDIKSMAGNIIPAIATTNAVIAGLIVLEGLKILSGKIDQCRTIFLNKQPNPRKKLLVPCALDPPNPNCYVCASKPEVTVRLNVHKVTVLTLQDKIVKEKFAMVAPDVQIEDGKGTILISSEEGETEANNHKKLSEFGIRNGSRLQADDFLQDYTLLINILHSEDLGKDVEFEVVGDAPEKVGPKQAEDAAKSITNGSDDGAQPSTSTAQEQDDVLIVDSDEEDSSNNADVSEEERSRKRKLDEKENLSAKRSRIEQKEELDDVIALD
Chain of Albumin (P02769 whole entry): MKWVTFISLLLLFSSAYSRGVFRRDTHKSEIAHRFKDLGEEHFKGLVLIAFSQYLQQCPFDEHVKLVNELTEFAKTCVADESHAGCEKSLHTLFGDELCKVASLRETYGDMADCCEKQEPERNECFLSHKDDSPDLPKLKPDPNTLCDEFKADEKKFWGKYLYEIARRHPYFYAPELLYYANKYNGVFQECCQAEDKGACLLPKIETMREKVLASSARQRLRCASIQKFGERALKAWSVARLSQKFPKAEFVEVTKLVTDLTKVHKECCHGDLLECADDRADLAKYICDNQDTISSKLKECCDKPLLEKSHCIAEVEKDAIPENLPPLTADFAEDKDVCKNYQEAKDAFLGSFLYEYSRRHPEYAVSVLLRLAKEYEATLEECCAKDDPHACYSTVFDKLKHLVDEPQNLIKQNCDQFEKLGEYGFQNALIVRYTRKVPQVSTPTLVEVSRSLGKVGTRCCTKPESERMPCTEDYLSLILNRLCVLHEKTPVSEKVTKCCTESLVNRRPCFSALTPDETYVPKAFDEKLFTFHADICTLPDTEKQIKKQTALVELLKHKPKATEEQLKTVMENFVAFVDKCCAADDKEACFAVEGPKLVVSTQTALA
Chain of Intestinal-type alkaline phosphatase (Mus musculus, UniProt P24822) (P24822 whole entry): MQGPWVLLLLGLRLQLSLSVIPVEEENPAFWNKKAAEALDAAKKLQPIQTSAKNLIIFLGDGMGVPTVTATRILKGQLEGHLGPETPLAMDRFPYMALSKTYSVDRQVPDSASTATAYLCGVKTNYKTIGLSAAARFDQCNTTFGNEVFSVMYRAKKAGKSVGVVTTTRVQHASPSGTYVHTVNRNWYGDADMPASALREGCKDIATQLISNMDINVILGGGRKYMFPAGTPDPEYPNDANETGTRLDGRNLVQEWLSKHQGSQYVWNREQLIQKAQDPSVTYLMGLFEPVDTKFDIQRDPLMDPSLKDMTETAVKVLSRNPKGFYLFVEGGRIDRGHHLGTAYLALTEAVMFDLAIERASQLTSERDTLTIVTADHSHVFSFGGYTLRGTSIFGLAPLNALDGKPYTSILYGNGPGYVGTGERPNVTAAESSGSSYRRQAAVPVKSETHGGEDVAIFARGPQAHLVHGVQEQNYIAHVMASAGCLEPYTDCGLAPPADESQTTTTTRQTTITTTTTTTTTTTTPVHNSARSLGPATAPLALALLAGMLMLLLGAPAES
Chain of Intestinal-type alkaline phosphatase (Homo sapiens, UniProt P09923) (P09923 whole entry): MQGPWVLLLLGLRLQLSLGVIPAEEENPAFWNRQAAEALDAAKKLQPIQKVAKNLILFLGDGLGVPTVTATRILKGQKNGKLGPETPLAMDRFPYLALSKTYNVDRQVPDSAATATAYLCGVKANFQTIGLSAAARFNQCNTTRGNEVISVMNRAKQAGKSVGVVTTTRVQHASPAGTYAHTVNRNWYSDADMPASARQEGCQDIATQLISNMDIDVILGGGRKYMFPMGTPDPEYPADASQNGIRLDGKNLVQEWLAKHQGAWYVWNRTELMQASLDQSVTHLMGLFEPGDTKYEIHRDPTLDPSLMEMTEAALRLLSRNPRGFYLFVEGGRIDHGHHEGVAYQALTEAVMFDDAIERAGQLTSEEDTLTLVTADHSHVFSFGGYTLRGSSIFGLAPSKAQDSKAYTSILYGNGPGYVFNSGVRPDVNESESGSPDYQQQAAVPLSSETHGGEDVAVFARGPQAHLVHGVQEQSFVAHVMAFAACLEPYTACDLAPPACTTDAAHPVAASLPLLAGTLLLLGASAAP

Cc1nc(N2CCN(C(=O)c3ccco3)CC2)c2c3c(sc2n1)CC(C)CC3 (stereo not given)
EC50 [1]: > 32 µM (inactive)
IC50 [2]: 0.653 µM (active)
IC50 (Cannabinoid receptor 2 [3]): > 32 µM (inactive)
IC50 (Cannabinoid receptor 2 [4]): > 32 µM (inactive)
EC50 (Cannabinoid receptor 1 [5]): > 32 µM (inactive)
AC50 [6]: 4.08 µM (active)
EC50 (Cannabinoid receptor 2 [7]): 28.2 µM (inactive)
AC50 [8]: 2.33 µM (active)
IC50 [9]: > 32 µM (inactive)
IC50 [10]: 0.527 µM (active)
EC50 (Cannabinoid receptor 2 [11]): > 32 µM (inactive)
IC50 (Cannabinoid receptor 1 [12]): 3.17 µM (active)
IC50 [13]: 0.342 µM (active)
AC50 [14]: 50.5 µM (active)
AC50 (INS1): 6.56 µM (active)
IC50 (Cannabinoid receptor 1 [15]): > 32 µM (inactive)

CN[C@@H](C)C(=O)NC1CCCN([C@@H](C)C(=O)NC2CCc3ccccc3C2)C1=O (stereo not given in full)
IC50 [16]: > 100 µM (inactive)
IC50 [17]: > 100 µM (inactive)

Cc1ccc(NS(=O)(=O)c2ccc3nc(O)oc3c2)c(C)c1
EC50 [18]: 58.7 µM (active)
EC50 [19]: 60.3 µM (active)
EC50 [20]: 62.7 µM (active)

O=C(CN1C(=O)S/C(=C\c2ccccc2)C1=O)NNC(=O)c1ccccc1O
IC50 (Exodeoxyribonuclease V): > 119 µM (inactive)
IC50 (Albumin): > 94.1 µM (inactive)
IC50 (SUMO-activating enzyme): 38.2 µM (active)
IC50 [21]: > 119 µM (inactive)
